Reference: US20260053861A1, “CELL COMPOSITIONS AND METHODS OF USING THE SAME” (THE REGENTS OF THE UNIVERSITY OF CALIFORNIA, priority 2022, published 2026)
Where a name gives a salt, the structure may show the parent alone. Read-outs that look alike come from different tables or passages of the source. Non-standard residues stand in square brackets, D forms with d. Residues, ends and D or L forms follow the SMILES beside them. *: point of attachment. Sta = CC(C)C[C@H](N)[C@@H](O)CC(=O)O; Isovaleryl = CC(C)CC(=O)*

Tests used:
[1] = Blood glucose levels in STZ-treated mice; details: BP in chow
hPSC-SCs [2] = tested on: hPSC-SCs
hPSC-SCs [3] = experiment: Untargeted primary metabolomics of glucose and BP treated SCs; type: cell-based, human
hPSC-SCs [4] = experiment: Metabolite measurements by biochemical/colorimetric assays (sorbitol, fructose, lactate, glucose, pyruvate); type: cell-based, human
NF-kB p65 = NF-kB p65 staining, nuclear localization in SCs exposed to high glucose; type: cell-based, human
[5] = tested on: patients suffering from neuropathic pain; details: cited from earlier work
[6] = tested on: SOX10+ cells in 2D or 3D NC cultures; experiment: Maintenance of SOX10 expression in cultured NC precursors with signaling modulators; type: cell-based, human; details: CHIR99021 exposure together with FGF2, 3D aggregates
Source text: Initial hPSC-based NC differentiation protocols relied on the delamination of putative NC cells from neuroepithelial lineages combined with the prospective isolation of p75+ and/or HNK1+ NC precursors (Bajpai et al., 2010; Lee et al., 2007). While those protocols yield various NC-derived lineages, the levels of SOX10 expression are generally low. In contrast, more directed NC induction protocols based on timed exposure to activators of WNT signaling show robust induction of SOX10 in the majority of cells by day 11 of differentiation (Barber et al., 2019; […] et al., 2016; Menendez et al., 2011; Mica et al., 2013; Tchieu et al., 2017). Upon further culture, those hPSC-derived NC cells can be directed into SOX10+ melanocytes (Mica et al., 2013) but also give rise to SOX10-mesenchymal and neuronal precursors ([…] et al., 2016; Lee et al., 2007; Mica et al., 2013; Tchieu et al., 2017). Since SOX10 is a key marker in the SC lineage (Finzsch et al., 2010), we first screened for conditions that maintained its expression in cultured NC precursors. We determined the percentage of SOX10+ cells in 2D or 3D NC cultures in the presence of modulators of EGF, FGF, WNT, Notch, TGFβ, BMP and endothelin 3 signaling.

[7] = HTS viability of hPSC-SCs in the presence of 30 mM glucose, Prestwick library, Table S4

| Molecule | z.score.t (hPSC-SCs [2]; [7]) | z.score.t (hPSC-SCs [2]) | also measured |
| --- | --- | --- | --- |
| CC(NC(C)(C)C)C(=O)c1cccc(Cl)c1 (centres unmarked) [BP, Bupropion] |  |  | blood glucose levels [1]: does not affect glucose levels; normalized (transformed) viability z-score, number of viable cells (hPSC-SCs [2]; 30 mM glucose, compounds at 1 μM, 72 hours, DAPI negative RFP positive cells): top hit compound; highest non-toxic dose (hPSC-SCs [2]; human): 0.7 µM; rescue of viability of high glucose treated SC cultures, dose response (hPSC-SCs [2]; various concentrations, high glucose): dose-dependent effect on rescuing the viability; cellular lactate level (hPSC-SCs [3]; SCs): reduced after BP treatment; levels of TCA cycle metabolites succinate, fumarate, citrate, α-ketoglutarate and malate (hPSC-SCs [3]; SCs): increase in the detected levels; cellular pyruvate increased by high glucose (hPSC-SCs [3]; high glucose): lowered by BP treatment; concentration of citrate reduced by high glucose (hPSC-SCs [3]; high glucose): reversed by BP treatment; urea concentration and transporter SLC14A2 mRNA level (hPSC-SCs [3]; high glucose): decreased in the presence of BP; cellular level of fructose increased by high glucose (hPSC-SCs [4]): countered this effect; intracellular glucose and sucrose levels (hPSC-SCs [4]; SCs, high glucose): decrease in intracellular glucose and sucrose levels; sorbitol accumulation in SCs (hPSC-SCs [4]; high glucose): reduced sorbitol accumulation in SCs in a dose-dependent manner; NF-kB p65 localization to the nucleus in SCs exposed to high glucose (NF-kB p65): counteracted by BP treatment; benefit in patients with neuropathic pain [5]: some benefit |
| FGF2 |  |  | SOX10 expression in cultured NC precursors [6]: maintenance of SOX10 expression in 3D aggregates |
| Cc1c[nH]c(-c2cnc(NCCNc3ccc(C#N)cn3)nc2-c2ccc(Cl)cc2Cl)n1 [CHIR99021, reference compound] |  |  | SOX10 expression in cultured NC precursors [6]: maintenance of SOX10 expression in 3D aggregates |
| CCOc1cc(CC(=O)N[C@@H](CC(C)C)c2ccccc2N2CCCCC2)ccc1C(=O)O [Repaglinide] | −1.216 |  |  |
| CCOc1ccc(NC(C)=O)cc1 [Phenacetin] | 0.8023 |  |  |
| COc1cc(OC)c(C(=O)CCCN2CCCC2)c(OC)c1 [Buflomedil hydrochloride] | 0.3641 |  |  |
| CCOC(=O)[C@H](CCc1ccccc1)N[C@@H](C)C(=O)N1Cc2ccccc2C[C@H]1C(=O)O [Quinapril HCl] | −0.1464 |  |  |
| COP(=O)(OC)C(O)C(Cl)(Cl)Cl (centres unmarked) [Trichlorfon] |  | −0.04944 |  |
| CNCCC(Oc1ccccc1OC)c1ccccc1 (centres unmarked) [Nisoxetine hydrochloride] |  | 0.4318 |  |
| C[C@]12C[C@H](O)[C@H]3[C@@H](CCC4=CC(=O)CC[C@@]43C)[C@@H]1CC[C@@H]2C(=O)CO [Corticosterone] | −0.2486 |  |  |
| Retrorsine |  | −0.3526 |  |
| COc1ccc2cc(CCC(C)=O)ccc2c1 [Nabumetone] | 0.5365 |  |  |
| O=c1ccc2cc(O[C@@H]3O[C@H](CO)[C@@H](O)[C@H](O)[C@H]3O)c(O)cc2o1 [Esculin Hydrate] |  | 1.053 |  |
| O=C(O)c1cc(/N=N/c2ccc(S(=O)(=O)Nc3ccccn3)cc2)ccc1O [Sulfasalazine] | 0.1344 |  |  |
| Lycorine hydrochloride |  | −2.213 |  |
| O=c1cc(-c2ccc(O)cc2)oc2c([C@@H]3O[C@H](CO)[C@@H](O)[C@H](O)[C@H]3O)c(O)cc(O)c12 [Vitexin] | −0.05622 |  |  |
| C=C1c2cccc(O)c2C(=O)C2=C(O)[C@]3(O)C(=O)C(C(N)=O)=C(O)[C@@H](N(C)C)[C@@H]3[C@@H](O)[C@H]12 [Methacycline hydrochloride] | −0.4684 |  |  |
| CCN1C[C@]2(COC)CC[C@H](OC)[C@]34C5C[C@@H]6[C@@H](OC)C[C@@]7(OCO[C@@]7(C13)[C@@H](O)C24)C5[C@H]6OC (some centres unmarked) [Delcorine] |  | −0.9741 |  |
| Eburnamonine (−) | 1.516 |  |  |
| CC[C@]12CCCN3CCc4c(n(c5ccccc45)[C@](O)(C(=O)OC)C1)[C@@H]32 [Epivincamine] |  | −0.2486 |  |
| O=C(C1CCCCC1)N1CC(=O)N2CCc3ccccc3C2C1 (centres unmarked) [Praziquantel] | −0.5553 |  |  |
| CC(C)CC(=O)N[C@H](C(=O)N[C@H](C(=O)N[C@@H](CC(C)C)[C@@H](O)CC(=O)N[C@@H](C)C(=O)N[C@@H](CC(C)C)[C@@H](O)CC(=O)O)C(C)C)C(C)C [Pepstatin A] (Isovaleryl-VV[Sta]A[Sta]-OH) |  | −1.319 |  |
| c1ccc([C@H]2CN3CCSC3=N2)cc1 [Levamisole hydrochloride] | 0.4064 |  |  |
| O=C(OCC(O)CO)c1ccccc1Nc1ccnc2cc(Cl)ccc12 (centres unmarked) [Glafenine hydrochloride] |  | −0.727 |  |
| O=C1NCC2(CCN(CCc3ccccc3)CC2)O1 [Fenspiride hydrochloride] | −0.01953 |  |  |
| C[C@]12CC[C@@H]3c4ccc(OS(=O)(=O)O)cc4CC[C@H]3[C@@H]1CCC2=O [Estropipate] | 1.178 |  |  |
| Terbutaline hemisulfate | −1.238 |  |  |
| COc1ccc(C[C@H](N)C(=O)N[C@H]2[C@@H](O)[C@H](n3cnc4c(N(C)C)ncnc43)O[C@@H]2CO)cc1 [Puromycin dihydrochloride] | −2.056 |  |  |
